“Also recorded” adds a separate entry of the source. One block for each molecule: values may come before it.
Key:
p-β-catenin^Y489 = assay: Immunofluorescence staining of phosphorylated β-catenin localization in ABSCs; format: cell-based, mouse
Description: (§1) Mouse and human ABSCs were fixed in […] for 15 minutes followed by permeabilization with 0.50% Triton-X for 10 minutes. Cells were blocked using serum-free protein block (Dako X090930) for one hour at room temperature and overnight primary antibody incubation. Secondary antibodies were incubated for 1 hour in darkness, washed, and mounted using Vectashield hardest mounting medium with DAPI (Vector Labs H-1500). IF images were obtained using an LSM780 or LSM880 Zeiss confocal microscope and composite images generated using Fiji.
(§2) To determine whether the pathobiology observed in human patients can be modeled in vitro, mouse ABSCs (mABSCs) were treated with GSK3β inhibitor CHIR99021 (CHIR) under submerged culture conditions for 4 days to activate canonical Wnt signaling (FIG. 2A).

human ABSCs = assay: Air-liquid interface (ALI) differentiation assay with human ABSCs; format: cell-based; conditions: human ABSCs, treated for 21 days
Description: (§3) 24-well 6.5 mm transwells with 0.4 μm pore polyester membrane inserts were coated with 0.2 mg/mL collagen type I dissolved in 60% ethanol and allowed to air dry. ABSCs were seeded at 100,000 cells per well and allowed to grow in the submerged phase of culture for 4-5 days with 500 μl media in the basal chamber and 200 μl media in the apical chamber. ALI cultures were then established and culture with only 500 μl media in the basal chamber, and cultures harvested at varying timepoints for immunofluorescence studies. Media was changed every other day and cultures were maintained at 37° C. and 5% C02. ABSCs were treated with the indicated concentrations of GSK3XV (Sigma 361558), CHIR or WIC1.
as §1
To assess whether WIC1 could reverse Wnt/β-catenin-induced ABSC hyperproliferation, human ABSCs were treated with either DMSO, CHIR, or CHIR+WIC1. […] It was then sought to determine if WIC1 could promote ABSC differentiation to ciliated cells under ALI conditions.

Trp63 = Trp63 expression with CHIR and WIC1 treatment (FIG. 4F); format: cell-based; conditions: CHIR treatment
Description: (§4) RNA was isolated with the RNeasy Mini Kit (Qiagen 74104) following manufacturer's protocol and quantified using a NanoDrop Spectrophotometer (ThermoFisher). cDNA synthesis was performed using the TaqMan Reverse Transcription Reagents (ThermoFisher) as indicated by the company. qPCR was then performed using the TaqMan PCR Master Mix (Applied Biosystems) on the StepOne-Plus Real Time PCR System.

mouse ABSCs (mABSCs) [1] = assay: Air-liquid interface (ALI) differentiation assay with mouse ABSCs; format: cell-based
Description: as §3
Mouse ABSCs were grown in MTEC Plus media and MTEC serum-free media during the submerged and ALI phases of culture, respectively. MTEC base media is DMEM/Ham's F12 50/50 (Corning 15090CV). Table S1 and Table S2 indicate the media components and concentrations for MTEC Plus and MTEC serum-free media, respectively.
as §1, with “Fiji. […]” for “Fiji.”

mouse ABSCs (mABSCs) [2] = assay: EdU proliferation assay in mouse ABSCs, submerged culture; format: cell-based; conditions: submerged culture 4 days; for mABSC proliferation (EdU incorporation): 1 μM CHIR + 1 μM inhibitor
Description: Mouse and human ABSCs were isolated following a previously published method. Briefly, mouse tracheas were dissected, cleaned, and incubated in 16 U/mL dispase for 30 minutes (1 hour for human) at room temperature. Tracheas were then incubated in 0.5 mg/mL DNase for another 30 minutes (1 hour for human) at room temperature. Epithelium was stripped and incubated in 0.1% Trypsin-EDTA for 30 minutes (1 hour for human) shaking at 37° C. to generate a single cell suspension. Isolated cells were passed through a 40 μm strainer and stained with fluorophore-conjugated antibodies against ITGA6 and TROP2. ITGA6+ TROP2+ cells were obtained via FACS that was completed using the BD FACSAria cell sorter.
In vitro proliferation was studied using the Click-iT EdU incorporation assay kit (Invitrogen C10337) following the company's protocol. Briefly, mouse and human AB SC cultures were treated with 10 μM EdU 6-8 hours prior to commencing IFs. Cells were fixed with […] for 15 minutes followed by permeabilization in 0.5% Triton-X for 20 minutes. EdU cocktail was incubated for 30 minutes in darkness followed by immunocytochemistry.
as §2

TP63 = assay: qRT-PCR of TP63 expression in BEAS2B cells; format: cell-based, human; conditions: addition of CHIR
Description: as §4

BEAS2B cells = assay: Cell Titer Glo toxicity assay in BEAS2B cells; format: cell-based, human; conditions: various concentrations
Description: (§5) For luciferase reporter assays conducted outside of the high-throughput drug screen, BEAS2B cells were seeded in a 96-well plate at 20,000 cells per well. The following day, cells were with treated DMSO, 5 μM CHIR99021 (CHIR; Tocris 4423), or 5 μM CHIR plus WIC2 (Key Organics GP-0355), Coumarin (Sigma C4261), or WIC1 for 24 hours. Lysis reactions were conducted using BrightGlo (Promega E1910) and incubated for two minutes at room temperature prior to transferring luminescence reactions to white-bottom, white-walled 96-well plates (Costar). Toxicity assays were conducted by adding Cell Titer Glo reagent (Promega) following manufacturer's protocol. Luminescence readings were conducted using the Clariostar plate reader.

[3] = test system: TCF/LEF luciferase reporter; assay: TCF/LEF luciferase reporter assay in transduced BEAS2B cells (CHIR-induced); format: cell-based, human; conditions: 10 nM, WIC1, MSAB, LF3, ICG001 compared
Description: BEAS2B cells (ATCC CRL-9609) were seeded in a 6-well plate and infected with Cignal lentiviral particles containing a TCF/LEF luciferase reporter (Qiagen CLS-018L). Cells were spin infected at 37° C. for one hour using a multiplicity of infection of 20. Cells were selected with 0.6 μg/mL puromycin to isolate stably expressing clones.
as §5
In light of the finding that Wnt/β-catenin signaling drives ABSC hyperproliferation, a small molecule inhibitors of the pathway that could restore airway homeostasis. A high-throughput drug screen was established to identify compounds capable of reducing TCF/LEF activity measured by a luciferase reporter induced by CHIR treatment in a 384-well format (FIG. 3A). Briefly, white-bottom 384-well plates (Greiner One) were precoated overnight with 0.01 mg/mL fibronectin from human plasma (Sigma F0895), 0.03 mg/mL rat tail collagen type I (Corning 354249), and 0.01 mg/mL BSA (ThermoFisher BP-9706) diluted in 50 uL of Airway Epithelial Cell Growth Medium (PromoCell C21060). Precoat was then aspirated and washed using 100 μL the BioTek EL406. A custom V&P pin tool mounted to a Beckman FX liquid handler was then used to pin […] of 10 mM stock compound. 2,000 BEAS2B cells per well were then seeded using the Multidrop. Cells were therefore treated with 1% DMSO, 5 μM CHIR, or 5 μM CHIR+10 μM pinned compound and incubated for 24 hours at 37° C. and 5% CO2. […] 25 μL BrightGlo (Promega) was subsequently added to each well using the BioTek EL405 and incubated for 2 minutes prior reading luminescence values with the Envision plate reader (FIG. 3B). […] Z′ factor values were used to assess assay quality and was calculated by: Z′=1-3(SD Total+SDBackground)/(MeanTotal−MeanBackground) where SDTotal and MeanTotal are the standard deviation and mean of signal for CHIR-treated wells, and SDBackground and MeanBackground are the standard deviation and mean of signal for DMSO-treated wells. The Z′ factor value was calculated to be 0.82.

[4] = test system: TCF/LEF luciferase reporter; assay: TCF/LEF (TOPFLASH) luciferase reporter in mABSCs; format: cell-based, mouse; conditions: vs DMSO-treated cultures
Description: mABSCs were seeded in a 6-well transwell plate and transiently transfected with […] of the TOPFLASH luciferase reporter and […] Renilla Luciferase reporter vector pRL-TK for internal control (Promega). Transfections were conducted using Lipofectamine 2000 Transfection Reagent (ThermoFisher 11668030) following the manufacturer's protocol.
as §2

[5] = mABSCs, ALI, GSK3β inhibitor vs DMSO
[6] = mABSCs, ALI, 100 nM inhibitor vs DMSO
[7] = mABSCs, ALI, 1 μM inhibitor vs DMSO

Molecule: Cc1c[nH]c(-c2cnc(NCCNc3ccc(C#N)cn3)nc2-c2ccc(Cl)cc2Cl)n1 [CHIR, CHIR99021]
- Nuclear p-β-catenin^Y489 (p-β-catenin^Y489; compound alone vs DMSO): increase in nuclear p-β-cateninY489; also recorded: increased nuclear p-β-catenin^Y489; also recorded: induced nuclear localization of p-β-catenin^Y489
- Localization of other phosphorylated forms of β-catenin (Y654, S552, S33,S37,T41) (p-β-catenin^Y489; mouse ABSCs, submerged phase of culture): remained primarily cytoplasmic or membranous
- Differentiation to the ciliated cell fate (human ABSCs): abolished differentiation to the cilated cell fate
- Pool of ABSCs (human ABSCs): increased pool for ABSCs
- Trp63 expression (Trp63): induction of Trp63 expression
- Percentage of ciliated cells (mouse ABSCs (mABSCs) [1]; [5]): significant reduction in the percentage of ciliated cells
- Pool of K5+ mABSCs (mouse ABSCs (mABSCs) [1]; [5]): increased pool of K5+ mABSCs
- ABSC morphology (mouse ABSCs (mABSCs) [1]; mABSCs, ALI, vs DMSO): clumping morphology reminiscent of PMLs; also recorded: dose-dependent heaping morphology that resembles the PMLs
- mABSC proliferation (EdU) (mouse ABSCs (mABSCs) [2]; compound alone vs DMSO): statistically significant increase in proliferation; also recorded: statistically significant increased proliferation
- TP63 expression (TP63): increase in TP63 expression

Molecule: O=C1[C@H](Cc2ccc(O)cc2)N2C(=O)CCN(C(=O)NCc3ccccc3)[C@H]2CN1Cc1cccc2ccccc12 [ICG001]
- Toxicity by Cell Titer Glo (BEAS2B cells): dose dependent toxicity
- Proportion of ciliated cells (mouse ABSCs (mABSCs) [1]; [6]): induced a greater proportion of ciliated cells
- Percentage of ciliated cells (mouse ABSCs (mABSCs) [1]; [7]): no effect on the percentage of ciliated cells
- mABSC proliferation (EdU incorporation) (mouse ABSCs (mABSCs) [2]): decreased mABSC proliferation to a similar degree

Molecule: COC(=O)c1cccc(NS(=O)(=O)c2ccc(C)cc2)c1 [MSAB]
- Toxicity by Cell Titer Glo (BEAS2B cells): dose dependent toxicity
- TCF/LEF activity, inhibitor comparison [3]: only inhibitor that decreased TCF/LEF activity at 10 nM
- Proportion of ciliated cells (mouse ABSCs (mABSCs) [1]; [6]): neither 100 nM nor 1 μM MSAB increased differentiation to the ciliated cell fate
- Percentage of ciliated cells (mouse ABSCs (mABSCs) [1]; [7]): neither 100 nM nor 1 μM MSAB increased differentiation to the ciliated cell fate
- mABSC proliferation (EdU incorporation) (mouse ABSCs (mABSCs) [2]): decreased mABSC proliferation to a similar degree

- TCF/LEF activity measured by a luciferase reporter [4]: increased TCF/LEF activity
B1: Wnt3A: recombinant Wnt3A protein used to raise Wnt signaling (protein, UniProt P56704 19-352, looked up)
Protein Wnt-3a: SYPIWWSLAVGPQYSSLGSQPILCASIPGLVPKQLRFCRNYVEIMPSVAEGIKIGIQECQHQFRGRRWNCTTVHDSLAIFGPVLDKATRESAFVHAIASAGVAFAVTRSCAEGTAAICGCSSRHQGSPGKGWKWGGCSEDIEFGGMVSREFADARENRPDARSAMNRHNNEAGRQAIASHMHLKCKCHGLSGSCEVKTCWWSQPDFRAIGDFLKDKYDSASEMVVEKHRESRGWVETLRPRYTYFKVPTERDLVYYEASPNFCEPNPETGSFGTRDRTCNVSSHGIDGCDLLCCGRGHNARAERRREKCRCVFHWCCYVSCQECTRVYDVHTCK
- Proportion of ciliated cells (mouse ABSCs (mABSCs) [1]; ALI conditions, 100 ng/mL): increased the proportion of ciliated cells
- K5+ mABSCs (mouse ABSCs (mABSCs) [1]; ALI conditions, 500 ng/mL): K5+ mABSC expansion
- Proportion of ciliated cells (mouse ABSCs (mABSCs) [1]; ALI conditions, 500 ng/mL): produced fewer ciliated cells
